{
  "source": "patent US20260152395A1",
  "about": "“SUSTAINED-RELEASE CHLORINE DIOXIDE GAS […] AND METHOD” (ABC MEDICAL CO., LTD., priority 2022, published 2026)",
  "data": [
    {"test": "Chlorine dioxide generation test 1: organic substance added to sodium chlorite solution, reactivity observed", "type": "physicochemical", "set-up": "key: high reaction rate (+++++) resulted in the initiation of chlorine dioxide gas generation relatively quickly within several hours to several days after the addition; intermediate reaction rate (+++) resulted in the initiation of chlorine dioxide gas generation within several days to several tens of days after the addition; The reaction initiation time of the organic substances with a slow reaction rate (+) is hard to specify", "details": "organic substance added to 23% aqueous sodium chlorite; room temperature and refrigerated temperature", "method": "To investigate the reactivity with and the risk of sodium chlorite depending on the type of organic substance, each of organic substances in Table 1 was added to a 23% aqueous solution of sodium chlorite to observe the reactivity at room temperature and refrigerated temperature.", "values": [
      {"smiles": "CCO", "note": "[Ethanol]", "Reaction rate": "+++++"},
      {"smiles": "OC[C@@H](O)[C@@H](O)[C@H](O)[C@@H](O)CO", "note": "[Sorbitol]", "Reaction rate": "+++"},
      {"smiles": "[O]=[Ca]", "note": "[Calcium oxide]", "Reaction rate": "No reaction"},
      {"smiles": "[Na+].[OH-]", "note": "[Sodium hydroxide]", "Reaction rate": "No reaction"},
      {"smiles": "[K+].[OH-]", "note": "[Potassium hydroxide]", "Reaction rate": "No reaction"},
      {"smiles": "[Cl-].[Na+]", "note": "[Salt]", "Reaction rate": "No reaction"},
      {"smiles": "O=C(CO)[C@@H](O)[C@H](O)[C@H](O)CO", "note": "[Fructose]", "Reaction rate": "+++"},
      {"smiles": "[Ca+2].[OH-].[OH-]", "note": "[Calcium hydroxide]", "Reaction rate": "No reaction"},
      {"smiles": "OC[C@H]1O[C@H](O[C@H]2O[C@H](CO)[C@@H](O)[C@H](O)[C@H]2O)[C@H](O)[C@@H](O)[C@@H]1O", "note": "[Trehalose]", "Reaction rate": "+++"},
      {"smiles": "OC[C@H]1O[C@@](CO)(O[C@H]2O[C@H](CO)[C@@H](O)[C@H](O)[C@H]2O)[C@@H](O)[C@@H]1O", "note": "[Sucrose]", "Reaction rate": "+++"},
      {"smiles": "O=C([O-])[O-].[Na+].[Na+]", "note": "[Sodium carbonate]", "Reaction rate": "+"},
      {"smiles": "N[C@@H](CCC(=O)[O-])C(=O)[O-].[Na+].[Na+]", "note": "[Sodium glutamate]", "Reaction rate": "+++++"},
      {"smiles": "OCC(O)CO", "note": "[Glycerol]", "Reaction rate": "+++++"},
      {"smiles": "OO", "note": "[Hydrogen peroxide]", "Reaction rate": "No reaction"},
      {"smiles": "O=C1NS(=O)(=O)c2ccccc21.[Na]", "note": "[Sodium saccharin]", "Reaction rate": "+++"}
    ]}
  ]
}
